Source: patent publication US9974767B2, “Statins in the treatment of muscular dystrophies and myopathies” (University of Washington, priority 2014, dated 2018)

Assays:
Type in all cases: in vivo, mouse
[1] = test system: Phospholamban (PLB), SERCA2a; assay: SERCA2a, PLB S-16 and total PLB expression in cardiac muscle, immunoblotting; conditions: old mdx mice, vs mdx Con
Excerpt: Aberrant Ca2+ handling in dystrophic cardiomyocytes leads to impaired relaxation, which is a major cause of diastolic dysfunction. […] Phospholamban (PLB) is a major inhibitor of SERCA activity and can therefore depress cardiac function.

[2] = test system: mdx mice; assay: TA muscle function in situ (specific force, fatigue, recovery)
Protocol: Hindlimb (TA) muscle physiology was measured in situ, which has the advantages of direct nerve stimulation and intact blood circulation. […] We also evaluated muscle fatigue resistance and recovery from fatigue, because this is a major cause of weakness in dystrophic muscle. TA muscle fatigue was assessed after 1 min and 2 min of repetitive tetanic contractions (2 sec apart). […] Recovery from muscle fatigue was measured every 2 min up to 10 min post fatigue.
Muscle degeneration and loss of function in DMD begins very early in the disease and progressively worsens over time. Consequently, useful therapeutic agents must be effective when administered at various stages of the disease. […] Hindlimb (TA) muscle physiology was measured in situ. This method has the advantages of direct nerve stimulation and intact blood circulation, which provides an essentially in vivo approach for measuring muscle function. Remarkably, specific muscle force increased by 40% (P<0.001) for mdx Sim compared to mdx Con mice, a dramatic increase for a pharmacological agent.
In addition to the loss of specific force, increased muscle fatigue and slowed force recovery are also significant causes of muscle weakness in DMD. Muscle fatigue in TA was measured during repetitive tetanic contractions (every 2 seconds) for a total of 2 minutes. For mdx Con mice, force declined rapidly during the early part of the fatigue and then much less steeply for the remainder of the contractions (FIG. 12A). In contrast, the force decline for mdx Sim was very similar to the WT groups, with a slow force drop over the first minute and then a greater decline over the last minute (see FIG. 12B). […] Recovery from fatigue was measured up to 10 min post fatigue (FIG. 12C). […] The cellular mechanisms of muscle fatigue are complex, however ROS are known to be an important cause of force loss during muscle fatigue.
Tibialis anterior (TA) muscle function was measured in situ. Mice were anaesthetized with an intraperitoneal injection of Avertin (625 mg/kg) and placed on a heated metal platform (37° C.). The distal TA tendon was dissected free and sutured to the lever arm of the force and length control system (305C-LR, Aurora Scientific). Muscle contraction was provided by stimulation of the Sciatic nerve using bipolar electrodes, which was kept moist during the experiment with PBS. The knee bone was firmly anchored to the platform via a steel pin. A length-force curve was generated by stimulating the muscle at 120 Hz (200 ms duration), every 90 sec, from short to long muscle lengths. […] Fatigue recovery was measured every 2 min up to 10 min post-fatigue. […] Membranes were incubated with enhanced chemiluminescence (ECL) reagent (Amersham) and bands were detected by the FluorChem M, imaging system (Protein Simple).

[3] = test system: mdx mice; assay: Diaphragm fibrosis (fibronectin immunofluorescence, hydroxyproline assay for collagen I)
Excerpt: In order to be a viable treatment approach for DMD, a drug must be efficacious at different stages of the disease and target both skeletal and cardiac muscle. […] Diaphragm force production progressively declines with age in both mdx mice and DMD. […] The replacement of muscle fibers with fibrotic connective tissue is a major cause of impaired muscle force generation in DMD and therefore an important therapeutic target. […] Quantification of total collagen I levels by hydroxyproline assay indicated a 50% reduction in fibrosis for mdx Sim mice.
The diaphragm most closely recapitulates the functional deficits and fibrotic deposition that occur in DMD. […] Quantification of total collagen I levels in diaphragm muscles by hydroxyproline assay also indicated a 50% reduction in fibrosis for mdx Sim mice (FIG. 13E).
Muscles were imbedded in O.C.T compound and frozen in isopentane cooled in liquid nitrogen. […] For fluorescence quantification (CD68, fibronectin and myosin heavy chains), images were converted to grayscale in Image J and a threshold applied to calculate the area of fluorescence as a percent of the total area of the section. Fibers with central nuclei were expressed as a percent of total fibers with detectable nuclei (ie. both central and peripheral).
To quantify muscle fibrosis, Collagen I content was measured using the hydroxyproline assay. […]

CCC(C)(C)C(=O)O[C@H]1C[C@@H](C)C=C2C=C[C@H](C)[C@H](CC[C@@H]3C[C@@H](O)CC(=O)O3)[C@H]21 [Simvastatin, simvastatin]
increase of PLB S-16 [1]: 55%
force recovery at 2 min post fatigue ([2]; mdx Sim): 80.9 % of the initial, pre-fatigue force
force recovery at 10 min post fatigue ([2]; mdx Sim): 86.9%
increase of hindlimb (TA) specific muscle force ([2]; mdx Sim vs mdx Con, treatment from 3 to 6 months of age): 40%
TA force after 1 minute of fatigue ([2]; mdx Sim, tetanic contractions every 2 sec, mdx Con 53%): 68 % of initial force
attenuation of fibrosis, fibronectin immunofluorescence ([3]; diaphragm sections, old mdx Sim vs mdx Con): 50%
reduction in fibrosis, total collagen I levels by hydroxyproline assay ([3]; diaphragm, old mdx mice, 2 months treatment): 50%
